The values that follow come from patent US11613531B2, “Inhibitors of RHO associated coiled-coil containing protein kinase” (Kadmon Corporation, LLC, priority 2017, dated 2023).

Assay [1] concerns the target Recombinant ROCK2 (amino acids 1-552) (Homo sapiens (Human), UniProt O75116). Put plainly: Z′-Lyte kinase assay, ROCK2. In kind it is biochemical. As to conditions: for inhibition at 3 µM: 3 μM compound; for inhibition at 3 µM / inhibition at 0.5 µM: read-out: ROCK2 % inh. @ [conc]; for inhibition at 0.5 µM: 0.5 μM compound. The gist of the method: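 Recombinant human ROCK1 (aa 1-535) or ROCK2 (aa 1-552) activity read by Z′-Lyte kinase assay. Percent inhibition at 1 μM compound was normalized to DMSO control; IC50 from 9-point 2-fold serial dilutions by nonlinear regression.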

The target in assay [2] is Recombinant ROCK1 (amino acids 1-535) (Homo sapiens (Human), UniProt Q13464). In words: Z′-Lyte kinase assay, ROCK1. As to conditions: for inhibition at 3 µM: 3 μM compound; for inhibition at 3 µM / inhibition at 0.5 µM: read-out: ROCK1 % inh. @ [conc]; for inhibition at 0.5 µM: 0.5 μM compound. Format: biochemical. How it is done: Determination of Compound's ROCK Inhibitory Activity In Vitro (Z'Lyte Assay).
Recombinant ROCK1 (amino acids 1-535) and ROCK2 (amino acids 1-552) proteins were purchased from ThermoFisher Scientific. Compound's activities were measured by Z′-lyte kinase kit (ThermoFisher Scientific) and IC50 was calculated
In vitro activities for the compounds were measured with Z′-lyte kinase kit (ThermoFisher Scientific). The percent inhibition rate was calculated by normalizing the kinase activity value obtained with 1 μM compound treatment against DMSO control value and then applied to the formula, [1-(compound/DMSO)]×100%. IC50s were calculated using the nonlinear regression curve fit function of the GraphPad Prism software with kinase activities data measured with 9 points 2-fold serial dilution of compounds treatment. In cell pMLC IC50s were calculated with data obtained from A7R5 cell experiments. A7R5 cells were treated with 9 points 2-fold serial dilution of compounds and ppMlc (T18/S19) levels were determined to calculate cellular IC50 values of the compounds using the nonlinear regression curve fit function of the GraphPad Prism software. NIH3T3 cells stably expressing ACTA2-promoter-driven-luciferase were applied to measure ROCK compounds functional IC50s in cells. Cells were plated in 96 well plates to confluence and treated with 9 points serial dilution of compounds in combination with TGFβ1 for 24 hr. Luciferase activities were measured and compound's IC50s were calculated using the nonlinear regression curve fit function of the GraphPad Prism software.

In assay [3] the test system is ppMlc (T18/S19) levels in A7R5 cells. Put plainly: A7R5 in-cell ELISA (pMLC). Format: cell-based, Rat. As to conditions: for IC50 / inhibition at 10 µM / inhibition at 1 µM: Rattus norvegicus, A7R5, A7R5 cells; for inhibition at 10 µM / inhibition at 1 µM: read-out: pMLC % inh A7R5 @ [conc]; for inhibition at 1 µM: 1 μM compound. The gist of the method: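 A7R5 rat aortic smooth muscle cells seeded 24 h, then treated 90 min with a 9-point 2-fold compound dilution series. Fixed cells probed for ppMlc (T18/S19) by colorimetric in-cell ELISA; cellular IC50 from nonlinear regression curve fit.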

[4] abbreviates: 9 points 2-fold serial dilution.

Where “and” joins values, the source holds several entries; their conditions need not be identical. Equal entries are not always repeated. Where two headings read alike, the source gives them in different places.

For orientation: IC50 means the point on the concentration scale where inhibition reaches its midpoint.

Sequence of Recombinant ROCK1 (amino acids 1-535) (Q13464 1-535): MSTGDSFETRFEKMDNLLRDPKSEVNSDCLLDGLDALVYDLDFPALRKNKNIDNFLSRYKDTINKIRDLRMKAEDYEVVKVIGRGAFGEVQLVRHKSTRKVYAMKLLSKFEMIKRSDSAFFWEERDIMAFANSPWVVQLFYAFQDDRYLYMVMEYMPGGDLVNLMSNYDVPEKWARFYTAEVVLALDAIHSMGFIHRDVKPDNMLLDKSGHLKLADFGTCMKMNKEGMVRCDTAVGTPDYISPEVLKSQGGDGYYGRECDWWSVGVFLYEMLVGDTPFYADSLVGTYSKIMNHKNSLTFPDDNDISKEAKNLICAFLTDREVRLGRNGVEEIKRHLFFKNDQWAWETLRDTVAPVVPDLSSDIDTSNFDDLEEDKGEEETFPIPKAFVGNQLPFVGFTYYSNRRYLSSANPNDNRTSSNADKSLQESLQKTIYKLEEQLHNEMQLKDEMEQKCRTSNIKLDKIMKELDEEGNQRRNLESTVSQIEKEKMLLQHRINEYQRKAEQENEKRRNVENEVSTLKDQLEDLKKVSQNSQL
Sequence of Recombinant ROCK2 (amino acids 1-552) (O75116 1-552): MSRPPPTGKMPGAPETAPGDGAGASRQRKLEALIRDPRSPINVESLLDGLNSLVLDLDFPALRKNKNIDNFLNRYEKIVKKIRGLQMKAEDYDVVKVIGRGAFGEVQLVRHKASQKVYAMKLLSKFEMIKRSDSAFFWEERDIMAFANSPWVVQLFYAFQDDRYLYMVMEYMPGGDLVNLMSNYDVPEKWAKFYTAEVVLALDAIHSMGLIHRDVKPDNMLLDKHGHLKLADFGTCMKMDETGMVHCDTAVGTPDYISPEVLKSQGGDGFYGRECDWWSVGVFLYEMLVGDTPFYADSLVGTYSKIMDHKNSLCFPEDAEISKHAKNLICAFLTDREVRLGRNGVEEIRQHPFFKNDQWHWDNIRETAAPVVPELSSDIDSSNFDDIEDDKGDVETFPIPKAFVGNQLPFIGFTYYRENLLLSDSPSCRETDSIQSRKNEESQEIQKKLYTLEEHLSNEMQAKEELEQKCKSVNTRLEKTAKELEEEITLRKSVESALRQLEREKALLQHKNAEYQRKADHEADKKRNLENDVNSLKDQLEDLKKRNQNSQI

For `CC(C)C1CCN(c2nccc(Nc3ccc4[nH]ncc4c3)n2)CCN1` (stereo not shown) [Example 61, N-(2-(5-isopropyl-1,4-diazepan-1-yl)pyrimidin-4-yl)-1H-indazol-5-amine], the inhibition at 3 µM in assay [1] and in assay [2] was 100% throughout. In addition, the IC50 in assay [1] (setting [4]) is above 1000 nM; in assay [2] (setting [4]), above 1000 nM; in assay [3] (ppMlc (T18/S19)), 8170 nM.

As to `CCC1CN(c2nccc(Nc3ccc4[nH]ncc4c3)n2)CCCN1` (stereo not shown) [Example 62, N-(2-(3-ethyl-1,4-diazepan-1-yl)pyrimidin-4-yl)-1H-indazol-5-amine], the inhibition at 3 µM in assay [1] and in assay [2] was 100% each time. The IC50 amounted to 177 nM in assay [1] (setting [4]), 179 nM in assay [2] (setting [4]) and 1300 nM in assay [3] (ppMlc (T18/S19)).

Turning to `c1ccc(C2CCN(c3nccc(Nc4ccc5[nH]ncc5c4)n3)CCN2)cc1` (stereo not shown) [Example 63, N-(2-(5-phenyl-1,4-diazepan-1-yl)pyrimidin-4-yl)-1H-indazol-5-amine], the inhibition at 3 µM in assay [1] and in assay [2] was 100% throughout. Besides, the IC50 in assay [1] (setting [4]) is above 1000 nM; in assay [2] (setting [4]) it was above 1000 nM; in assay [3] (ppMlc (T18/S19)), 25100 nM.

Take `c1ccc(C2CN(c3nccc(Nc4ccc5[nH]ncc5c4)n3)CCCN2)cc1` (stereo not shown) [Example 64, N-(2-(3-phenyl-1,4-diazepan-1-yl)pyrimidin-4-yl)-1H-indazol-5-amine]: the results for the IC50 in assay [1] (setting [4]), in assay [2] (setting [4]) and in assay [3] (ppMlc (T18/S19)) were 240 nM, 325 nM and 1040 nM, respectively. For the same compound, the inhibition at 10 µM in assay [3] (10 μM compound) stood at 63.9%.

`CC(C)C1CN(c2nccc(Nc3ccc4[nH]ncc4c3)n2)CCCN1` (stereo not shown) [Example 65, N-(2-(3-isopropyl-1,4-diazepan-1-yl)pyrimidin-4-yl)-1H-indazol-5-amine]: the IC50 was found to be 353 nM in assay [1] (setting [4]), 98 nM in assay [2] (setting [4]) and 1980 nM in assay [3] (ppMlc (T18/S19)). In addition, the inhibition at 10 µM in assay [3] (10 μM compound) worked out at 47.8%.

As for `CCCC1CNCCN1c1nccc(Nc2ccc3[nH]ncc3c2)n1` (stereo not shown) [Example 69, N-(2-(2-propylpiperazin-1-yl)pyrimidin-4-yl)-1H-indazol-5-amine], the inhibition at 0.5 µM was found to be 52% in assay [1] and 67% in assay [2]. The inhibition at 1 µM in assay [3] turned out to be 19.3%.

On to `Clc1cnc(N2CCNCC2)nc1Nc1ccc2[nH]ncc2c1` [Example 178, N-(5-chloro-2-(piperazin-1-yl)pyrimidin-4-yl)-1H-indazol-5-amine], for which the IC50 is 159 nM in assay [1] (setting [4]), 388 nM in assay [2] (setting [4]) and 706 nM in assay [3] (ppMlc (T18/S19)). Also, in assay [3] (10 μM compound), the inhibition at 10 µM stood at 47.5%.

`CCC1CNCCN1c1ncc(Cl)c(Nc2ccc3[nH]ncc3c2)n1` (stereo not shown) [Example 187, N-(5-chloro-2-(2-ethylpiperazin-1-yl)pyrimidin-4-yl)-1H-indazol-5-amine]: the values for the IC50 in assay [1] (setting [4]), in assay [2] (setting [4]) and in assay [3] (ppMlc (T18/S19)) were 111 nM, 58 nM and 665 nM, respectively. The inhibition at 10 µM in assay [3] (10 μM compound) turned out to be 59.8%.

For `CC1CN(c2ncc(Cl)c(Nc3ccc4[nH]ncc4c3)n2)CC(C)N1` (stereo not shown) [Example 189, N-(5-chloro-2-(3,5-dimethylpiperazin-1-yl)pyrimidin-4-yl)-1H-indazol-5-amine], the figures for the inhibition at 0.5 µM in assay [1] and in assay [2] were 14% and 18%, respectively. Further, in assay [3] (10 μM compound), the inhibition at 10 µM came to 33.4%. Besides, in assay [3] (ppMlc (T18/S19)), the IC50 is 637 nM.

Consider `Cc1cnc(N2CCNCC(C)C2)nc1Nc1ccc2[nH]ncc2c1` (stereo not shown) [Example 196, N-(5-methyl-2-(6-methyl-1,4-diazepan-1-yl)pyrimidin-4-yl)-1H-indazol-5-amine], for which the inhibition at 0.5 µM in assay [1] is 39%; in assay [2] it was 37%. Besides, in assay [3], the inhibition at 1 µM worked out at 17.6%.

Consider `c1cc(Nc2ccc3[nH]ncc3c2)nc(N2CCC3(CCNCC3)C2)n1` [Example 202, N-(2-(2,8-diazaspiro[4.5]decan-2-yl)pyrimidin-4-yl)-1H-indazol-5-amine], for which the inhibition at 3 µM in assay [1] came to 88.3%; in assay [2] it was 88.4%. For the same compound, the inhibition at 10 µM in assay [3] (10 μM compound) was determined as 13.8%.

In the case of `CC1CN(c2nccc(Nc3ccc4[nH]ncc4c3)n2)CCCN1` (stereo not shown) [Example 203, N-(2-(3-methyl-1,4-diazepan-1-yl)pyrimidin-4-yl)-1H-indazol-5-amine], the inhibition at 3 µM in assay [1] was determined as 98%; in assay [2], 89.1%. Also, the results for the IC50 in assay [1] (setting [4]), in assay [2] (setting [4]) and in assay [3] (ppMlc (T18/S19)) were 57 nM, 46 nM and 561 nM, respectively. The inhibition at 10 µM in assay [3] (10 μM compound) amounted to 63.5%.

With `c1cc(Nc2ccc3[nH]ncc3c2)nc(N2CC3CNCC3C2)n1` (stereo not shown) [Example 210, N-(2-(hexahydropyrrolo[3,4-c]pyrrol-2(1H)-yl)pyrimidin-4-yl)-1H-indazol-5-amine], the values for the inhibition at 3 µM in assay [1] and in assay [2] were 0% and 41.9%, respectively. The inhibition at 10 µM in assay [3] (10 μM compound) amounted to 73.4%. Moreover, the IC50 in assay [3] (ppMlc (T18/S19)) is 589 nM.

For the compound `CC1CN(c2nccc(Nc3ccc4[nH]ncc4c3)n2)CCN1` (stereo not shown) [Example 225, N-(2-(3-methylpiperazin-1-yl)pyrimidin-4-yl)-1H-indazol-5-amine], the inhibition at 3 µM is 98.3% in assay [1] and 80.9% in assay [2]. Moreover, the values for the IC50 in assay [1] (setting [4]) and in assay [3] (ppMlc (T18/S19)) were 98 nM and 532 nM, respectively. The inhibition at 10 µM in assay [3] (10 μM compound) was 78%.

For `N[C@@H]1CCN(c2nccc(Nc3ccc4[nH]ncc4c3)n2)C1` [Example 231, (R)—N-(2-(3-aminopyrrolidin-1-yl)pyrimidin-4-yl)-1H-indazol-5-amine], the IC50 in assay [1] is 276 nM; in assay [2] it was above 10000 nM; in assay [3] it was 335 nM. In addition, in assay [3] (A7R5 cells, 10 μM compound), the “pMLC % inh A7R5 @ [conc]” value is 94.24, % and 63.4%.

On to `CC1CNCCN1c1nccc(Nc2ccc3[nH]ncc3c2)n1` (stereo not shown) [Example 232, N-(2-(2-methylpiperazin-1-yl)pyrimidin-4-yl)-1H-indazol-5-amine], for which the inhibition at 3 µM in assay [1] amounted to 104%; in assay [2], 100%. Besides, the IC50 came out at 22 nM in assay [1] (setting [4]), 75 nM in assay [2] (setting [4]) and 129 nM in assay [3] (ppMlc (T18/S19)). In assay [3] (10 μM compound), the inhibition at 10 µM was found to be 93%.

On to `COc1cccc(CNC2CCCN(c3nccc(Nc4ccc5[nH]ncc5c4)n3)C2)c1` (stereo not shown) [Example 233, N-(2-(3-((3-methoxybenzyl)amino)piperidin-1-yl)pyrimidin-4-yl)-1H-indazol-5-amine], for which the IC50 in assay [1] was 217 nM; in assay [2], above 10000 nM; in assay [3], 712 nM. Moreover, in assay [3] (10 μM compound), the inhibition at 10 µM worked out at 95.1%.

In the case of `CC1CNCCCN1c1nccc(Nc2ccc3[nH]ncc3c2)n1` (stereo not shown) [Example 238, N-(2-(2-methyl-1,4-diazepan-1-yl)pyrimidin-4-yl)-1H-indazol-5-amine], the IC50 in assay [1] (setting [4]) stood at 17 nM; in assay [2] (setting [4]) it was 55 nM; in assay [3] (ppMlc (T18/S19)), 215 nM. Further, the inhibition at 10 µM in assay [3] (10 μM compound) turned out to be 70%.

`CC1CCN(c2nc(Nc3ccc(-c4ccncc4)cc3)c3ccccc3n2)CCN1` (stereo not shown) [Example 239, 2-(5-methyl-1,4-diazepan-1-yl)-N-(4-(pyridin-4-yl)phenyl)quinazolin-4-amine]: the inhibition at 3 µM in assay [1] and in assay [2] was 100% throughout. The figures for the IC50 in assay [1] (setting [4]), in assay [2] (setting [4]) and in assay [3] (ppMlc (T18/S19)) were above 1000 nM, above 1000 nM and 6350 nM, respectively.

With `Cc1cc(Nc2ccc(-c3ccncc3)cc2)nc(N2CCNC(C)CC2)n1` (stereo not shown) [Example 245, 6-methyl-2-(5-methyl-1,4-diazepan-1-yl)-N-(4-(pyridin-4-yl)phenyl)pyrimidin-4-amine], the inhibition at 3 µM in assay [1] and in assay [2] was 100% throughout. In addition, the IC50 in assay [1] (setting [4]) is above 1000 nM; in assay [2] (setting [4]), above 1000 nM; in assay [3] (ppMlc (T18/S19)) it was 8220 nM.

In the case of `Cc1cc(Nc2ccc(-c3ccncc3)cc2)nc(N2CCCNC(C)C2)n1` (stereo not shown) [Example 247, 6-methyl-2-(3-methyl-1,4-diazepan-1-yl)-N-(4-(pyridin-4-yl)phenyl)pyrimidin-4-amine], the inhibition at 3 µM in assay [1] and in assay [2] was 100% in each case. Besides, the IC50 in assay [1] (setting [4]) was determined as 407 nM; in assay [2] (setting [4]) it was 132 nM; in assay [3] (ppMlc (T18/S19)), 1960 nM.

Consider `CCC1CN(c2nccc(Nc3ccc(-c4ccncc4)cc3)n2)CCCN1` (stereo not shown) [Example 248, 2-(3-ethyl-1,4-diazepan-1-yl)-N-(4-(pyridin-4-yl)phenyl)pyrimidin-4-amine], for which the inhibition at 3 µM in assay [1] and in assay [2] was 100% in each case. Further, the IC50 in assay [1] (setting [4]) came to 43.9 nM; in assay [2] (setting [4]), 36 nM; in assay [3] (ppMlc (T18/S19)), 968 nM.
